The text below walks through data of ChEMBL document CHEMBL3864168, “Imidazopyridazine Inhibitors of PI3Kβ” (ACS Med Chem Lett, 2016).

For orientation: Kd means a measure of binding affinity in units of concentration. High values mean a looser complex, low ones a tighter complex. For orientation: IC50 means the concentration that inhibits the measured activity by half.

The target of assay [1] is Phosphatidylinositol 4,5-bisphosphate 3-kinase catalytic subunit gamma isoform (Homo sapiens, UniProt P48736). The assay can be described thus: Binding affinity to human PI3Kgamma (144 to 1102 residues) expressed in mammalian expression system by KINOMEscan assay.
Sequence of Phosphatidylinositol 4,5-bisphosphate 3-kinase catalytic subunit gamma isoform (P48736 whole entry, the tested form may be a part, canonical isoform): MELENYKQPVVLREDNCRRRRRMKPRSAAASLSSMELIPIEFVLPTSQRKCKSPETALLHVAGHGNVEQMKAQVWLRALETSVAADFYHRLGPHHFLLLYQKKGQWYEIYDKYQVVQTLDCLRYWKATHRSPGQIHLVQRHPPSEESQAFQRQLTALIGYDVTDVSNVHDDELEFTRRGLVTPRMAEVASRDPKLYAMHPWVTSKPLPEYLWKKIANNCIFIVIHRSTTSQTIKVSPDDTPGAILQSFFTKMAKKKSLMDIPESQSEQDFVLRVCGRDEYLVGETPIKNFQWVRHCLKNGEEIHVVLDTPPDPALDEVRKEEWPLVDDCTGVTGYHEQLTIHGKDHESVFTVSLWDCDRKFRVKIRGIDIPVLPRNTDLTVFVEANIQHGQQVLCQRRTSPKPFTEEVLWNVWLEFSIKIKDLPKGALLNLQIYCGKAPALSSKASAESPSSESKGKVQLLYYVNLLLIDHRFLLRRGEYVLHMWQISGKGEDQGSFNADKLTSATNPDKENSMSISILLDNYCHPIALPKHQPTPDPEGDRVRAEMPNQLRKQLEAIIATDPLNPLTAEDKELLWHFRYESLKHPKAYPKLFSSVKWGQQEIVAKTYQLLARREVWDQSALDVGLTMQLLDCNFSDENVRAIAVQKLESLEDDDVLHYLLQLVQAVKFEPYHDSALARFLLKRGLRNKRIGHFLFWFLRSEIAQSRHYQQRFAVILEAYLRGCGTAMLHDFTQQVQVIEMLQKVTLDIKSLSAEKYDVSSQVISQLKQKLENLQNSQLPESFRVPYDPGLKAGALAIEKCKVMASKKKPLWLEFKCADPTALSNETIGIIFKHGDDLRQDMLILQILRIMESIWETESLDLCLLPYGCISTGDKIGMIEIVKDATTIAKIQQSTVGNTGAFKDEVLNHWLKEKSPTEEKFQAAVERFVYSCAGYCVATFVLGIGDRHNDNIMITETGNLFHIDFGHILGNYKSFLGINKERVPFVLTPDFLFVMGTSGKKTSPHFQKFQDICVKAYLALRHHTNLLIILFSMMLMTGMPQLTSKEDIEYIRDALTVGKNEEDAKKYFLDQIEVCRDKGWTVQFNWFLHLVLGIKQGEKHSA
The target in assay [2] is T1, Phosphatidylinositol 4,5-bisphosphate 3-kinase catalytic subunit beta isoform (Homo sapiens, UniProt P42338). In words: Inhibition of PI3Kbeta in human PC3 cells assessed as suppression of AKT phosphorylation at Ser473 after 60 mins by ELISA. Format: cell-based, PC-3. Background: ELISA stands for enzyme-linked immunosorbent assay.
T1 sequence (P42338 whole entry, canonical isoform): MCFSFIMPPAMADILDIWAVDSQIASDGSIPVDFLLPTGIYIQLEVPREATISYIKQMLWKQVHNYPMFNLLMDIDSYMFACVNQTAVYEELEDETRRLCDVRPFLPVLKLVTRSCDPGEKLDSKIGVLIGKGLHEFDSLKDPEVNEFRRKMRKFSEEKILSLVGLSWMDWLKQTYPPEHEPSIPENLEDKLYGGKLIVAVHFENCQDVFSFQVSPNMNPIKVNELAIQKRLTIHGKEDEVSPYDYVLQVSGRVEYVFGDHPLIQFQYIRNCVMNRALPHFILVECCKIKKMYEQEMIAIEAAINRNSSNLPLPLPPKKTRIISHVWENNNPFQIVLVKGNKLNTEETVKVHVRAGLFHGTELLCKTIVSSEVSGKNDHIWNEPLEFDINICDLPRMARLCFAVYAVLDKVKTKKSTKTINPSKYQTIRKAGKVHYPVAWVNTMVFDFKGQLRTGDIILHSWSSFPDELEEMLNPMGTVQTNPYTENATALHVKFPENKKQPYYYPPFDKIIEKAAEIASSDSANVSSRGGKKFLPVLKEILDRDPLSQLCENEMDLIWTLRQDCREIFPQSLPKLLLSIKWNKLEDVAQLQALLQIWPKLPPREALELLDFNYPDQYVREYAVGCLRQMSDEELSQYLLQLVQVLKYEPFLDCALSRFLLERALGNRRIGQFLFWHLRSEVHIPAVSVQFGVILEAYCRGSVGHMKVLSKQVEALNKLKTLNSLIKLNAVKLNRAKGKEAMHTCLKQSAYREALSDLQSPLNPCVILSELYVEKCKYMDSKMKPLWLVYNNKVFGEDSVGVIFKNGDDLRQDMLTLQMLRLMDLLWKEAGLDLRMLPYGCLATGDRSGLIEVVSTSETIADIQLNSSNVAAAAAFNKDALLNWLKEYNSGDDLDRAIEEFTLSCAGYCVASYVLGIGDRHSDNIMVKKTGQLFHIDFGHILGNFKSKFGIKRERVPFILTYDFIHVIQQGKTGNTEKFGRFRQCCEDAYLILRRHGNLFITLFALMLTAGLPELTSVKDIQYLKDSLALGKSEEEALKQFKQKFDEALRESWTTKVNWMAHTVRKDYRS
Assay [3] addresses T1, Phosphatidylinositol 4,5-bisphosphate 3-kinase catalytic subunit beta isoform. In words: Inhibition of PI3Kbeta in human PC3 cells assessed as suppression of AKT phosphorylation at Thr308 after 60 mins by ELISA. The class given is cell-based, PC-3.
In assay [4] the target is Serine/threonine-protein kinase mTOR (Homo sapiens, UniProt P42345). The assay can be described thus: Binding affinity to human MTOR (1382 to 2549 residues) expressed in mammalian expression system by KINOMEscan assay.
The target of assay [5] is T2, Phosphatidylinositol 4,5-bisphosphate 3-kinase catalytic subunit delta isoform (Homo sapiens, UniProt O00329).
T2 sequence (O00329 whole entry): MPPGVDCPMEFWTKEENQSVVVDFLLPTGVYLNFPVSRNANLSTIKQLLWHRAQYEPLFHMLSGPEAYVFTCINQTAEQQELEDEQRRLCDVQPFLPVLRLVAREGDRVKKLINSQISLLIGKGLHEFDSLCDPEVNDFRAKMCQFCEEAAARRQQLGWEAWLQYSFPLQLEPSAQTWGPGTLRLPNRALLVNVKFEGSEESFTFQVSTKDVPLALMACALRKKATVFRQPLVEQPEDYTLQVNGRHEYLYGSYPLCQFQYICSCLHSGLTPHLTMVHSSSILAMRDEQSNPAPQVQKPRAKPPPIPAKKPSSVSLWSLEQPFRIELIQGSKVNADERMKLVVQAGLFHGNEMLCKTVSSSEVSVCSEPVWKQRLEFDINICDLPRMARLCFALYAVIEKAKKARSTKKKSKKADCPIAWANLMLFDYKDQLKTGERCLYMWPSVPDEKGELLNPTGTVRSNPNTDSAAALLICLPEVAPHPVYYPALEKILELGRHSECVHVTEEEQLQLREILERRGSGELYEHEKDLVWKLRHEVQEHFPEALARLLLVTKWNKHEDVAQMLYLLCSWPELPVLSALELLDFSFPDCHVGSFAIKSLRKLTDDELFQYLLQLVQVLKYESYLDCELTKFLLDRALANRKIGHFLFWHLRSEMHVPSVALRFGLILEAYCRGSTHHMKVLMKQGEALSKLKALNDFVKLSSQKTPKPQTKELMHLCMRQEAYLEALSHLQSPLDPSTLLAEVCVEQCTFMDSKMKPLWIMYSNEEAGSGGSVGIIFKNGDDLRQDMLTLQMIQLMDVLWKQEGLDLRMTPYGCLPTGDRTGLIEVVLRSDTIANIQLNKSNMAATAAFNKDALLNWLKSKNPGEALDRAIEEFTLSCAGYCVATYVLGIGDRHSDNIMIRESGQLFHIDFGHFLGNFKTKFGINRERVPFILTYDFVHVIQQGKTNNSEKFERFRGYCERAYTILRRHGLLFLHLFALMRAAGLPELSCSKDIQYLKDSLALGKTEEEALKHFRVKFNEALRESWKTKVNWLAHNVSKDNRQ
The assay can be described thus: Binding affinity to human PI3Kdelta (108 to 1044 residues) expressed in mammalian expression system by KINOMEscan assay.

The target of assay [6] is Phosphatidylinositol 4,5-bisphosphate 3-kinase catalytic subunit alpha isoform (Homo sapiens, UniProt P42336). In words: Binding affinity to human PI3Kalpha (108 to 1068 residues) expressed in mammalian expression system by KINOMEscan assay.
Sequence of Phosphatidylinositol 4,5-bisphosphate 3-kinase catalytic subunit alpha isoform (P42336 whole entry, the tested form may be a part, canonical isoform): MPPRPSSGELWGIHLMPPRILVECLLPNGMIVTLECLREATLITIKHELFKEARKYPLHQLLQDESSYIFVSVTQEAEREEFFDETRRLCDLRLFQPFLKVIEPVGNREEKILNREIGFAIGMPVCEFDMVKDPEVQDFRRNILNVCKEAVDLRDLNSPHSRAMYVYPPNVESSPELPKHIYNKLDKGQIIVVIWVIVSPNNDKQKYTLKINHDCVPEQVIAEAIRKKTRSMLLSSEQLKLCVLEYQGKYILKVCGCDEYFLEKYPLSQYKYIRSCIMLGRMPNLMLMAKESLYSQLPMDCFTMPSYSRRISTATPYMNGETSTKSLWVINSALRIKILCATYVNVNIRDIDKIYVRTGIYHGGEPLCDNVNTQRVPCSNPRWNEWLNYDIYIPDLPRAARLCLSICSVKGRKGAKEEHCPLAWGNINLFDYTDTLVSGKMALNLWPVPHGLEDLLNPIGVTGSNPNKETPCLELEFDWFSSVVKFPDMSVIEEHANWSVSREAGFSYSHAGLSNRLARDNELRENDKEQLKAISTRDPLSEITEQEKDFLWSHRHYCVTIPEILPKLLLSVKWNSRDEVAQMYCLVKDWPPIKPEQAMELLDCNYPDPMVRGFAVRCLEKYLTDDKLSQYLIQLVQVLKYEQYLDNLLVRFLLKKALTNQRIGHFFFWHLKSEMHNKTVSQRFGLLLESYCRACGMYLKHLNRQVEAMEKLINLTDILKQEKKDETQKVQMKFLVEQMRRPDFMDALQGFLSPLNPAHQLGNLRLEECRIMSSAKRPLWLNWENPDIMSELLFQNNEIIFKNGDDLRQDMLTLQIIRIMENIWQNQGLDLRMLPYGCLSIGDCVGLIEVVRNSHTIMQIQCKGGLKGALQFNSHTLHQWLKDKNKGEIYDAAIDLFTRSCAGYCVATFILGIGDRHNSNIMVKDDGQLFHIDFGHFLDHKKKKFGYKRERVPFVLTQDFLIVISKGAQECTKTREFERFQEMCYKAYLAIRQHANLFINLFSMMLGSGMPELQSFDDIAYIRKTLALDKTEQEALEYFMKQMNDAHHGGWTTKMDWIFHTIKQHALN
The target of assay [7] is T1, Phosphatidylinositol 4,5-bisphosphate 3-kinase catalytic subunit beta isoform. The assay can be described thus: Binding affinity to human PI3Kbeta (118 to 1070 residues) expressed in mammalian expression system by KINOMEscan assay.

On to `Cc1c(Cc2c(CO)nc3c(C(=O)O)cc(N4CCOCC4)nn23)cccc1C(F)(F)F`, for which the Kd in assay [1] was greater than 15100 nM. Moreover, the IC50 in assay [2] and in assay [3] was greater than 513 nM in each case.
In the case of `Cc1c(Nc2c(CO)nc3c(N)cc(N4CCOC(CO)C4)nn23)cccc1C(F)(F)F` (stereo in doubt; 66), the Kd in assay [4] was 1380 nM; in assay [1], 13500 nM; in assay [5], 11000 nM; in assay [6], greater than 30200 nM; in assay [7], 138 nM. For the same molecule, the figures for the IC50 in assay [2] and in assay [3] were greater than 513 nM and 513 nM, respectively.
As for `Cc1nc2c(N)cc(N3CCOCC3)nn2c1Cc1cccc(C(F)(F)F)c1C`, the Kd was determined as 20300 nM in assay [4]; 11400 nM in assay [1]; 171 nM in assay [5]; 5130 nM in assay [6]; 6 nM in assay [7]. In addition, the results for the IC50 in assay [2] and in assay [3] were 12 nM and 17 nM, respectively.
For `Cc1nc2c(-c3cnc[nH]3)cc(N3CCOCC3)nn2c1Cc1cccc(C(F)(F)F)c1C`, the concentration for half-maximal inhibition (IC50) in assay [2] came out at 59 nM; in assay [3], 48 nM.
The corresponding values for `Cc1nc2c(C(=O)O)cc(N3CCOCC3)nn2c1Cc1cccc(C(F)(F)F)c1C` are 513 nM and 316 nM.
Regarding `Cc1c(Cc2c(CNCCS(C)(=O)=O)nc3c(N)cc(N4CCOCC4)nn23)cccc1C(F)(F)F`, the Kd in assay [1] is greater than 30200 nM. Also, the IC50 in assay [2] is 138 nM; in assay [3] it was 186 nM.
In the case of `Cc1nc2c(N)cc(N3CCOCC3)nn2c1Nc1cccc(C(F)(F)F)c1CN1CC(O)C1`, the figures for the Kd in assay [4], in assay [1] and in assay [5] were greater than 30200 nM, 19600 nM and 73 nM, respectively. Besides, the IC50 amounted to 44 nM in assay [2] and 33 nM in assay [3].
As for `Cc1c(Cc2c(CO)nc3c(N)cc(N4CCOCC4)nn23)cccc1C(F)(F)F` [listing 1 of 2 here], the figures for the Kd in assay [1] and in assay [6] were greater than 10000 nM and greater than 30200 nM, respectively. The IC50 in assay [2] turned out to be 46 nM; in assay [3], 38 nM.
Turning to `Cc1nc2c(N)cc(N3CCOCC3)nn2c1Nc1cccc(C(F)(F)F)c1CN1CCN(C)CC1`, the IC50 in assay [2] worked out at 21 nM; in assay [3], 17 nM.
For `Cc1c(Nc2c(CO)nc3c(N)cc(N4CCOC(CO)C4)nn23)cccc1C(F)(F)F` (stereo in doubt; 65), the Kd is 355 nM in assay [4]; 692 nM in assay [1]; 138 nM in assay [5]; 6610 nM in assay [6]; 1.3 nM in assay [7]. The IC50 in assay [2] is 79 nM; in assay [3] it was 43 nM.
As for `Cc1nc2c(C(N)=O)cc(N3CCOCC3)nn2c1Cc1cccc(C(F)(F)F)c1C`, the Kd in assay [4], in assay [1] and in assay [6] was greater than 30200 nM each time. Besides, the IC50 in assay [2] is 501 nM; in assay [3], greater than 513 nM.
Take `Cc1nc2c(-c3cnc[nH]3)cc(N3CCOCC3)nn2c1Nc1cccc(C(F)(F)F)c1CN1CC(O)C1`: the 50% inhibitory concentration (IC50) was 174 nM in assay [2] and 17 nM in assay [3].
For `Cc1c(Cc2c(CO)nc3c(N)cc(N4CCOCC4)nn23)cccc1C(F)(F)F` [listing 2 of 2 here], in that order: 52 nM and 41 nM.
In the case of `Cc1nc2c(-c3cnc[nH]3)cc(N3CCOCC3)nn2c1Nc1cccc(C(F)(F)F)c1C`, the Kd in assay [4] amounted to 4680 nM; in assay [1], 2290 nM; in assay [5] it was 49 nM; in assay [6] it was 912 nM; in assay [7], 2.6 nM. Moreover, the IC50 was determined as 12 nM in assay [2] and 8 nM in assay [3].
As to `CC(=O)NCc1nc2c(-c3cnc[nH]3)cc(N3CCOCC3)nn2c1Cc1cccc(C(F)(F)F)c1C`, the dissociation constant Kd was greater than 30200 nM in assay [4]; greater than 30200 nM in assay [1]; 59 nM in assay [5]; greater than 30200 nM in assay [6]; 2 nM in assay [7]. The IC50 is 33 nM in assay [2] and 11 nM in assay [3].
With `Cc1c(Cc2c(CN(C)CCS(C)(=O)=O)nc3c(N)cc(N4CCOCC4)nn23)cccc1C(F)(F)F`, the equilibrium dissociation constant (Kd) in assay [1] was greater than 30200 nM. Further, the concentration for half-maximal inhibition (IC50) in assay [2] was 34 nM; in assay [3], 41 nM.
